Reference: ChEMBL document CHEMBL2363022, “Malaria Box Schistosomiasis Screening Data” (2013)

How the values were obtained:
Format in all cases: functional
Design in all cases: scale not given here
Schistosoma mansoni [1] = system: Schistosoma mansoni
Schistosoma mansoni [2] = system: Schistosoma mansoni; remark: listed apart in the source
Schistosoma mansoni [3] = system: Schistosoma mansoni; remark: listed apart in the source

SMILES | Toxicity (Schistosoma mansoni [1]) | Toxicity (Schistosoma mansoni [2]) | Toxicity (Schistosoma mansoni [3])
COc1ccc(OC)c(C2C3=C(CC(C)(C)CC3=O)N(c3ccc(Cl)c(Cl)c3)C3=C2C(=O)CC(C)(C)C3)c1 | 0 | 1 | 1
CC(NCc1ccccc1)c1cc(Cl)ccc1O (configuration not stated) | 0 | 2 | 0
Cc1ccc(-c2cc(C(=O)Nc3ccc(S(=O)(=O)N4CCCCC4)cc3)[nH]n2)c(O)c1 | 0 | 0 | 0
Clc1ccc2[nH]c3c(NCCCN4CCOCC4)ncnc3c2c1 | 0 | 0 | 0
O=C(Nc1ccsc1C(=O)NC1CCCCC1)c1ccc(F)cc1 | 0 | 2 | 0
CCOc1ccc2c(c1)CN(Cc1ccc(Cl)cc1)CO2 | 0 | 2 | 0
CN(C)CCCNc1c2ccccc2nc2ccccc12 | 2 | 2 | 4
Cc1cc(C)cc(Nc2cc(C)nc3nc(C(F)(F)F)nn23)c1 | 0 | 0 | 0
Cc1cc(=O)oc2c1ccc1oc(C(=O)c3ccccc3)c(C)c12 | 0 | 0 | 0
COc1ccc(C(=O)C(CCC(CNC(C)(C)C)C(=O)c2ccc(OC)cc2)CNC(C)(C)C)cc1 (configuration not stated) | 3 | 0 | 4
COc1cc(OC)cc(N2C(=O)N(Cc3ccc(C(C)(C)C)cc3)c3ccccc3S2(=O)=O)c1 | 0 | 0 | 0
Br.Cc1ccc(C)c(-c2csc(Nc3ccc(C)c(C)c3)n2)c1 | 1 | 0 | 0
Cc1ccc(-c2nc3ccccc3o2)cc1NCc1cc(Cc2ccccc2)ccc1O | 0 | 0 | 0
O=C(Nc1ccc(C23CC4CC(CC(c5ccccc5)(C4)C2)C3)cc1)c1cccs1 | 2 | 2 | 2
CN(N=O)C1=C(NC2CCCCC2)C(=O)c2ccccc2C1=O | 0 | 0 | 0
COc1ccc(NC(=O)C2c3ccccc3C(=O)N(CC(C)C)C2c2cccs2)cc1Cl (configuration not stated) | 0 | 0 | 0
COc1ccc2nc(N)nc(C)c2c1 | 0 | 0 | 4
Cc1ccc(N2C3c4ccccc4N(S(=O)(=O)c4ccc(C)cc4)C2c2ccccc2N3S(=O)(=O)c2ccc(C)cc2)cc1 | 0 | 0 | 0
CC(C)(C)c1ccc(C(=O)Nc2c3c(nn2-c2cccc(Cl)c2)CSC3)cc1 | 0 | 0 | 0
CCOC(=O)c1ccc2nc(-c3ccccc3)cc(O)c2c1 | 0 | 0 | 4
O=C(NC1CCCCC1)C(c1cccs1)N(CCc1ccccc1)C(=O)c1ccco1 (configuration not stated) | 0 | 0 | 0
COc1cc(OC)c(N(C)C(=O)c2cc3c(s2)-c2ccccc2S(=O)(=O)C3)cc1Cl | 0 | 0 | 0
CC(C)(C)c1ccc2c(c1)CN(Cc1ccc(Cl)cc1)CO2 | 0 | 0 | 0
CCCCNCC(O)(c1ccc(Cl)cc1)c1ccc(Cl)cc1 | 0 | 0 | 0
O=C(NC1CCN(Cc2ccccc2)CC1)c1cc(-c2cccnc2)nc2ccc(Cl)cc12 | 0 | 0 | 0

SMILES | Toxicity (Schistosoma mansoni [1]) | Toxicity (Schistosoma mansoni [2]) | Toxicity (Schistosoma mansoni [3])
COc1ccc2nc(C)cc(Nc3ccccc3O)c2c1 | 0 | 0 | 0
O=C(O)C1Cc2c([nH]c3ccccc23)C(c2ccc(Cl)cc2Cl)N1 (configuration not stated) | 0 | 0 | 0
COc1ccc(C=C2SC(=N)N(c3ccccc3OC)C2=O)cc1 | 0 | 0 | 0
OC1CCCCC1C1(NC(=S)Nc2ccccc2)CCCCC1 (configuration not stated) | 0 | 0 | 0
COc1cccc(C(=O)NC(c2ccc(C)cc2)c2cc(Cl)c3cccnc3c2O)c1 (configuration not stated) | 4 | 1 | 4
N#Cc1nc(Cc2cccc3ccccc23)oc1N1CCN(C(c2ccccc2)c2ccccc2)CC1 | 0 | 0 | 0
CN1CCN(c2ccc(Nc3c4ccccc4nc4ccccc34)cc2)CC1 | 4 | 2 | 4
COc1ccc(-c2cn3c(C(=O)Nc4ccccc4Cl)c(-c4ccccc4)c4c3n2CCCC4)cc1 | 0 | 0 | 0
O=C(NCc1ccco1)C1CCN(S(=O)(=O)c2ccc(Br)cc2)CC1 | 0 | 0 | 0
O=C(Nc1ccc(CN2CCOCC2)cc1)c1ccc(-c2ccc(Br)cc2)o1 | 0 | 0 | 0
CCCCCCOC(=O)C1=C(C)NC(=O)NC1c1ccccc1F (configuration not stated) | 0 | 0 | 0
O=C(CCl)NCCOc1ccc(Cl)cc1Cl | 3 | 0 | 4
CCc1ccc(Nc2cc(C)nc3nc(C)nn23)cc1 | 0 | 0 | 0
Oc1ccc(-c2nc(-c3ccc4oc5ccc(-c6[nH]c(-c7ccc(O)cc7)nc6-c6ccccc6)cc5c4c3)c(-c3ccccc3)[nH]2)cc1 | 0 | 0 | 0
CC1CN(C(=O)c2sc3ccccc3c2Cl)CC(C)O1 (configuration not stated) | 0 | 0 | 0
CCOC(=O)c1c(C)n(-c2ccccc2)c2ccc(OC(=O)c3cc(OC)c(OC)c(OC)c3)cc12 | 0 | 0 | 0
CCOC(=O)C1=CN(C)C=C(C(=O)OCC)C1c1cc(Br)c(OCC)c(OC)c1 | 0 | 0 | 0
CCOc1ccccc1NC(=O)CN1CCN(C(=O)c2ccco2)CC1 | 0 | 0 | 0
CN1CCN(c2c3c(c(C#N)c4nc5ccccc5n24)CCC3)CC1 | 0 | 0 | 0
O=C(NCC1Cc2cccc(-c3ccncc3)c2O1)c1csc2c1CCCC2 (configuration not stated) | 0 | 0 | 0
COc1ccc(C=C2SC(Nc3ccc(F)cc3)=NC2=O)c(OC)c1 | 0 | 0 | 0
COc1ccc(CCNC(=O)c2cc(S(=O)(=O)N3CC(C)CC(C)C3)ccc2Sc2ccc(F)cc2)cc1OC (configuration not stated) | 4 | 4 | 4
Cc1ccc(-c2cc3nc4c(c(O)n3n2)CCCC4)cc1 | 0 | 0 | 0
CCc1c(C)c(=N)c2ccccc2n1C.I | 0 | 0 | 0
